Test results as given in publication PMC10746543, “Design principles for cyclin K molecular glue degraders” (Nature Chemical Biology, 2023).
pEC50, pIC50: −log10 of the molar value. Where “and” joins values, the source holds several entries; their conditions need not be identical. Equal values may be shown once. Read-outs that look alike come from different tables or passages of the source.

Experiments:
[1] = system: HEK293T cells; test: Drug sensitivity assay (CellTiter-Glo viability) with or without MLN4924 pretreatment; type: cell-based, human; settings: for pEC50: Homo sapiens, HEK-293T, HEK293T viability, 72 h, compound alone, read-out: Cellular assays EC50; for pEC50 / Toxicity rescue: Supplementary Table 2; for Toxicity rescue: MLN4924-mediated cytotoxicity rescue, 10 µM used where n.d.
How it was run: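 HEK293T–Cas9 cells at 0.15 × 10^6 ml^−1 were treated with DMSO or 100 nM MLN4924 before plating. Test drugs were added 2 h later and exposure lasted 3 days. Viability was read by CellTiter-Glo luminescence and expressed relative to DMSO controls.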

[2] = system: cyclin K–eGFP degradation reporter; test: Cyclin K reporter stability analysis (dual-color cyclin K–eGFP reporter); type: cell-based, human; settings: for reporter assay signal (normalized): replicates; for Normalized GFP/mCheery: flow source data
How it was run: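 Readout: flow-cytometric eGFP/mCherry ratio (geometric means, round mCherry+ gate) relative to the average of three DMSO wells. Reporter line was HEK293T–Cas9, treated 5 h with compound.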

[3] = system: cyclin K; test: Label-free quantitative mass spectrometry in MDA-MB-231 cells, cyclin K; type: cell-based, human; settings: for CCNK peptide count (DMSO-normalised): normalised to DMSO = 1, replicate values
Experimental: MDA-MB-231 cells were treated with DMSO or a cyclin K degrader compound at 1 µM for 5 h. Cells were collected by centrifugation and washed with phosphate-buffered saline before snap freezing in liquid nitrogen. Cells were lysed by addition of lysis buffer (8 M urea, 50 mM NaCl, 50 mM 4-(2-hydroxyethyl)-1-piperazineethanesulfonic acid (EPPS) pH 8.5, and protease and phosphatase inhibitors) and homogenization by bead beating (BioSpec) for three repeats of 30 s at 2,400 rpm. Bradford assay was used to determine the final protein concentration in the clarified cell lysate. Then 50 µg of protein for each sample was reduced, alkylated and precipitated using methanol/chloroform as previously described, and the resulting washed precipitated protein was allowed to air dry. Precipitated protein was resuspended in 4 M urea, 50 mM HEPES pH 7.4, followed by dilution to 1 M urea with the addition of 200 mM EPPS, pH 8. Proteins were first digested with LysC (1:50; enzyme:protein) for 12 h at room temperature. The LysC digestion was diluted to 0.5 M urea with 200 mM EPPS pH 8 followed by digestion with trypsin (1:50; enzyme:protein) for 6 h at 37 °C. Sample digests were acidified with formic acid to a pH of 2–3 before desalting using C18 solid phase extraction plates (SOLA, Thermo Fisher Scientific). Desalted peptides were dried in a vacuum-centrifuged and reconstituted in 0.1% formic acid for liquid chromatography–mass spectrometry analysis.
Data were collected using a TimsTOF Pro2 (Bruker Daltonics) coupled to a nanoElute LC pump (Bruker Daltonics) via a CaptiveSpray nano-electrospray source. Peptides were separated on a reversed-phase C18 column (25 cm × 75 µm inner diameter, […], IonOpticks) containing an integrated captive spray emitter. Peptides were separated using a 50 min gradient of 2–30% buffer B (acetonitrile in 0.1% formic acid) with a flow rate of 250 nl min^−1 and column temperature maintained at 50 °C.
Data-dependent acquisition (DDA) was performed in Parallel Accumulation-Serial Fragmentation (PASEF) mode to determine effective ion mobility windows for downstream diaPASEF data collection. The ddaPASEF parameters included: 100% duty cycle using accumulation and ramp times of 50 ms each, one Trapped Ion Mobility Spectrometry(TIMS)-MS scan and ten PASEF ramps per acquisition cycle. The TIMS-MS survey scan was acquired between 100 m/z and 1,700 m/z and 1/K0 of 0.7–1.3 V s cm^−2. Precursors with one to five charges were selected, and those that reached an intensity threshold of 20,000 arbitrary units were actively excluded for 0.4 min. The quadrupole isolation width was set to 2 m/z for m/z < 700 and 3 m/z for m/z > 800, with the m/z between 700 m/z and 800 m/z being interpolated linearly. […] To perform diaPASEF, the precursor distribution in the DDA m/z-ion mobility plane was used to design an acquisition scheme for data-independent acquisition (DIA) data collection that included two windows in each 50 ms diaPASEF scan. Data were acquired using 16 of these 25 Da precursor double window scans (creating 32 windows) that covered the diagonal scan line for doubly and triply charged precursors, with singly charged precursors able to be excluded by their position in the m/z-ion mobility plane. These precursor isolation windows were defined between 400 m/z and 1,200 m/z and 1/K0 of 0.7–1.3 V s cm^−2.
DirectDIA mode includes first extracting the DIA data into a collection of MS2 spectra which are searched using Spectronaut’s Pulsar search engine. The search results are then used to generate a spectral library which is then employed for the targeted analysis of the DIA data. MS/MS spectra were searched against a Swissprot human database (January 2021). Database search criteria largely followed the default settings for directDIA including: tryptic with two missed cleavages, fixed carbomidomethylation of cysteine, and variable oxidation of methionine and acetylation of protein N-termini and precursor Q-value (FDR) cut-off of 0.01. […]

[4] = target: T1, CDK9–cyclin T (Homo sapiens, UniProt P50750); test: Lanthascreen kinase binding assay, CDK9
T1 construct: purchased Thermo Fisher
Experimental: Lanthascreen experiments were performed using commercially available reagents (Thermo Fisher) and according to the manufacturer’s instructions.

[5] = source data sheet correlations, read-out: DC50
[6] = individual replicates, sheet EDF7
[7] = label-free quantitative MS, replicate values

T1 sequence (P50750 whole entry): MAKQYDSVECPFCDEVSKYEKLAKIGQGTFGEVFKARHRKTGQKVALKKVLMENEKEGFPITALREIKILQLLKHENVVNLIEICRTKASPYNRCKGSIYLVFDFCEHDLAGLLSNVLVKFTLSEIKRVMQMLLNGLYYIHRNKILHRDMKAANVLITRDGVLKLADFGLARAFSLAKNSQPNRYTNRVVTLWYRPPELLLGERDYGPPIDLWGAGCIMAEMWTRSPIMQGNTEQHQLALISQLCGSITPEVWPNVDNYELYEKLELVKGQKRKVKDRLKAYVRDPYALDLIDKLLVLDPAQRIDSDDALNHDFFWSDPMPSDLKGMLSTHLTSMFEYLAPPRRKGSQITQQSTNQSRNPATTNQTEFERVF
T1 sequence (O60563 whole entry partner): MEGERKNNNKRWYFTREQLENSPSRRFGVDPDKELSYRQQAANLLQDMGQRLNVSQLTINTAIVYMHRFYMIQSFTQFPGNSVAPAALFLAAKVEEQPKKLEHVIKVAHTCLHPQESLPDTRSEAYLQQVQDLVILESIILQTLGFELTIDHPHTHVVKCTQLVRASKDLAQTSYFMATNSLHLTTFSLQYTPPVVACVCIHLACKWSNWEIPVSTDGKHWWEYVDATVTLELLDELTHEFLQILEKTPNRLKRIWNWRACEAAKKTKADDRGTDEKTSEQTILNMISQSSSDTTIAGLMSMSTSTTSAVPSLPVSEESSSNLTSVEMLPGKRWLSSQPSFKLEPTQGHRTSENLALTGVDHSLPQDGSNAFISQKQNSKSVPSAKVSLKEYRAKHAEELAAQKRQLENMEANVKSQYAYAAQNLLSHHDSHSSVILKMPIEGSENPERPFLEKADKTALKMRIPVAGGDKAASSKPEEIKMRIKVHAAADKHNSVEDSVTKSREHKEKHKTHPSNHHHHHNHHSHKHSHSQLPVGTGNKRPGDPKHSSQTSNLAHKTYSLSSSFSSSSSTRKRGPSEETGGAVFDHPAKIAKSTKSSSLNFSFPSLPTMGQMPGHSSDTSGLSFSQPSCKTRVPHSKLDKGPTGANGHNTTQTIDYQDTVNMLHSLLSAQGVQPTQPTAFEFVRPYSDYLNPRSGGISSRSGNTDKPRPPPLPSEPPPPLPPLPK

With `C[C@H](C(=O)Nc1nc2ccccc2[nH]1)N1Cc2ccccc2C1=O` [compound 919278] the “viability assay signal (normalized)” value ([1]; 2 nM, + MLN4924) was 1.029 and 0.9647, the “viability assay signal (normalized)” value ([1]; 2 nM, without MLN4924) was 1.055 and 1.0418 and the “viability assay signal (normalized)” value ([1]; 4.69 nM, + MLN4924) was 1.105 and 1.018. The “viability assay signal (normalized)” value ([1]; 4.69 nM, without MLN4924) was 1.004 and 1.008, the “viability assay signal (normalized)” value ([1]; 11 nM, + MLN4924) was 1.0606 and 0.9151 and the “viability assay signal (normalized)” value ([1]; 11 nM, without MLN4924) was 1.048 and 1.059. The “viability assay signal (normalized)” value ([1]; 25.7 nM, + MLN4924) was 1.025 and 1.119, the “viability assay signal (normalized)” value ([1]; 25.7 nM, without MLN4924) was 0.893 and 1.0689 and the “viability assay signal (normalized)” value ([1]; 141 nM, + MLN4924) was 1.103 and 1.1762. The “viability assay signal (normalized)” value ([1]; 141 nM, without MLN4924) was 1.0013 and 1.019, the “viability assay signal (normalized)” value ([1]; 331 nM, + MLN4924) was 1.1 and 1.102 and the “viability assay signal (normalized)” value ([1]; 331 nM, without MLN4924) was 0.8356 and 0.898. The “viability assay signal (normalized)” value ([1]; 4270 nM, + MLN4924) was 0.7328 and 0.6837, the “viability assay signal (normalized)” value ([1]; 4270 nM, without MLN4924) was 0.374 and 0.3286 and the “viability assay signal (normalized)” value ([1]; 10000 nM, + MLN4924) was 0.484 and 0.4101. For the same compound, the “viability assay signal (normalized)” value ([1]; 10000 nM, without MLN4924) was 0.3001 and 0.3205, the pEC50 [1] was 6.25 and the Toxicity rescue [1] was 749%. For the same compound, the “reporter assay signal (normalized)” value ([2]; 5 nM) was 0.9951 and 0.9832, the “reporter assay signal (normalized)” value ([2]; 10.7 nM) was 0.9896 and 0.9546 and the “Normalized GFP/mCheery” value ([2]; 22.9 nM, HEK293T) was 0.8457. For the same compound, the “reporter assay signal (normalized)” value ([2]; 22.9 nM) was 0.9344 and 0.9583, the “Normalized GFP/mCheery” value ([2]; 48.9 nM, HEK293T) was 0.8139 and the “reporter assay signal (normalized)” value ([2]; 48.9 nM) was 0.9381 and 0.9234. For the same compound, the “Normalized GFP/mCheery” value ([2]; 105 nM, HEK293T) was 0.8144, the “reporter assay signal (normalized)” value ([2]; 105 nM) was 0.9087 and 0.8866 and the “reporter assay signal (normalized)” value ([2]; 224 nM) was 0.8755 and 0.8691. For the same compound, the “Normalized GFP/mCheery” value ([2]; 478 nM, HEK293T) was 0.7219, the “reporter assay signal (normalized)” value ([2]; 478 nM) was 0.8011 and 0.8332 and the “reporter assay signal (normalized)” value ([2]; 2190 nM) was 0.7799 and 0.7725. For the same compound, the “reporter assay signal (normalized)” value ([2]; 4680 nM) was 0.7431 and 0.7578, the “Normalized GFP/mCheery” value ([2]; 10000 nM, HEK293T) was 0.6269 and the “reporter assay signal (normalized)” value ([2]; 10000 nM) was 0.7256 and 0.8167. The “cyclin K reporter degradation, result in words” value ([2]; HEK293T) was “weaker”, the DC50 [2, 5] was 176 nM and the “cyclin K abundance (label-free MS)” value [3, 6] was 525.324 and 551.956. The “cyclin K abundance (label-free MS)” value [3, 7] was 525.324 and 551.956, the “CCNK peptide count (DMSO-normalised)” value [3] was 0.287 and 0.307 and the “average CCNK peptide count” value ([3]; sheet EDF7) was 538.64. For the same compound, the pIC50 ([4]; Lanthascreen, average, Extended Data Fig. 8, read-out: CDK9 IC50) was 6.92, the “Lanthascreen TR-FRET signal (raw ratio), sheet CDK9” value ([4]; compound 0.038147 nM, fourth titration set (r37), triplicates) was 0.0408 and 0.04808 and 0.04479 and the “Lanthascreen TR-FRET signal (raw ratio), sheet CDK9” value ([4]; compound 0.038147 nM, second titration set (r13), duplicates) was 0.01436 and 0.01414. The “Lanthascreen TR-FRET signal (raw ratio), sheet CDK9” value ([4]; compound 0.152588 nM, fourth titration set (r37), triplicates) was 0.0398 and 0.0481 and 0.0499, the “Lanthascreen TR-FRET signal (raw ratio), sheet CDK9” value ([4]; compound 0.152588 nM, second titration set (r13), duplicates) was 0.01385 and 0.01395 and the “Lanthascreen TR-FRET signal (raw ratio), sheet CDK9” value ([4]; compound 0.610352 nM, fourth titration set (r37), triplicates) was 0.03905 and 0.04639 and 0.04821. For the same compound, the “Lanthascreen TR-FRET signal (raw ratio), sheet CDK9” value ([4]; compound 0.610352 nM, second titration set (r13), duplicates) was 0.01357 and 0.01395, the “Lanthascreen TR-FRET signal (raw ratio), sheet CDK9” value ([4]; compound 9.76563 nM, fourth titration set (r37), triplicates) was 0.03561 and 0.04225 and 0.04097 and the “Lanthascreen TR-FRET signal (raw ratio), sheet CDK9” value ([4]; compound 9.76563 nM, second titration set (r13), duplicates) was 0.01332 and 0.01366. For the same compound, the “Lanthascreen TR-FRET signal (raw ratio), sheet CDK9” value ([4]; compound 39.0625 nM, fourth titration set (r37), triplicates) was 0.02645 and 0.03287 and 0.03192, the “Lanthascreen TR-FRET signal (raw ratio), sheet CDK9” value ([4]; compound 39.0625 nM, second titration set (r13), duplicates) was 0.01225 and 0.01118 and the “Lanthascreen TR-FRET signal (raw ratio), sheet CDK9” value ([4]; compound 156.25 nM, fourth titration set (r37), triplicates) was 0.01751 and 0.01989 and 0.01852. For the same compound, the “Lanthascreen TR-FRET signal (raw ratio), sheet CDK9” value ([4]; compound 156.25 nM, second titration set (r13), duplicates) was 0.008604 and 0.00887, the “Lanthascreen TR-FRET signal (raw ratio), sheet CDK9” value ([4]; compound 625 nM, fourth titration set (r37), triplicates) was 0.008779 and 0.01074 and 0.01058 and the “Lanthascreen TR-FRET signal (raw ratio), sheet CDK9” value ([4]; compound 625 nM, second titration set (r13), duplicates) was 0.005642 and 0.005316. For the same compound, the “Lanthascreen TR-FRET signal (raw ratio), sheet CDK9” value ([4]; compound 2500 nM, fourth titration set (r37), triplicates) was 0.006189 and 0.006358 and 0.00654, the “Lanthascreen TR-FRET signal (raw ratio), sheet CDK9” value ([4]; compound 2500 nM, second titration set (r13), duplicates) was 0.00388 and 0.003855 and the “Lanthascreen TR-FRET signal (raw ratio), sheet CDK9” value ([4]; compound 10000 nM, fourth titration set (r37), triplicates) was 0.00467 and 0.004911 and 0.00523. The “Lanthascreen TR-FRET signal (raw ratio), sheet CDK9” value ([4]; compound 10000 nM, second titration set (r13), duplicates) was 0.003154 and 0.003151.

`Cn1cc(-n2cnc3c(NCc4nc5cc(Cl)c(Cl)cc5[nH]4)nc(N4CCOCC4)nc32)cn1` [SR-4835] was tested, and the pEC50 [1] was 7.38, the Toxicity rescue [1] was 645% and the DC50 ([2]; Supplementary Fig. 4, HEK293T cycKeGFP reporter, 5h, n=2, read-out: DC50 printed on reporter plot) was 39 nM. The DC50 [2, 5] was 14 nM, the “cyclin K depletion, result in words” value ([3]; MDA-MB-231 cells, 1 µM, 5 h) was “more effective at depleting cyclin K than CR8” and the “cyclin K abundance (label-free MS)” value [3, 6] was 69.2958 and 61.7731. The “cyclin K abundance (label-free MS)” value [3, 7] was 69.2958 and 61.7731, the “CCNK peptide count (DMSO-normalised)” value [3] was 0.03786 and 0.03436 and the “average CCNK peptide count” value ([3]; sheet EDF7) was 65.5345. For the same compound, the IC50 ([4]; Supplementary Table 2, read-out: Lanthascreen IC50 [nM] CDK9) was 3660 nM.
